Entries after “also recorded” stand apart in the source; their conditions may differ.
How the values were obtained:
SNI mice = assay: mechanical withdrawal threshold (von Frey) after SNI; type: in vivo, mouse; settings: 1 or 3 hours after treatment on days 1 and 5 of 7-day schedule, 10 mg/kg p.o.
Description: Surgery. Spared nerve injury (SNI) was performed by the ligation and cutting of the tibial and peroneal branches of the left sciatic nerve trifurcation, leaving the sural branch intact as previously described (Decosterd and Woolf, 2000). Sham surgeries were performed the same way but without cutting the nerve. Mice were allowed to recover for 2 weeks following surgery.
Mechanical withdrawal threshold. Tactile sensitivity was measured by probing the left outer surface of the left hindpaw with a series of calibrated von Frey filaments. Mechanical withdrawal thresholds were assessed in all animals before (baseline) and after (2 weeks) surgery to confirm neuropathy. Withdrawal thresholds were calculated using the up-down method (Chaplan et al., 1994).

infralimbic cortex = assay: axon initial segment (AIS) length in infralimbic cortex, immunohistochemistry; type: in vivo, mouse; settings: 10 mg/kg p.o. daily for 7 days, male SNI mice
Description: Immunohistochemistry. All mice were perfused at 3 weeks post-surgery (the day after rule-shifting). Mice were deeply anesthetized with a mixture of ketamine (80 mg/kg) and xylazine (12 mg/kg; i.p.) and then transcardially perfused with 1× phosphate buffered saline (PBS; 4° C., pH 7.4) followed by 10% formalin in 0.1 M phosphate buffer (PB; 4° C., pH 7.4; 25 mL at a flow rate of […]) using a perfusion pump. Brains were dissected and transferred […] to a 30% sucrose in 0.1M PB. Once the brains sunk in sucrose, they were frozen in OCT over dry ice. Coronal sections (30 μm) were cut using a cryostat and a hole was placed in the left hemisphere to demarcate the left (ipsilateral) hemisphere. Free floating sections were then washed in 0.1M PB, and then incubated in blocking solution (10% Normal Goat Serum, 0.3% Triton-X 100 in 0.1M PB) for 1 hr at room temperature with gentle rocking/agitation. Sections were incubated in primary antibody (mouse-anti-AnkyrinG; UC Davis/NIH NeuroMab Facility, clone N106/36 RRID:AB_10673030; 2 μg/ml working concentration) diluted in blocking solution for 3 hrs at room temperature. […]
Image Analysis. […] For each image, 30 segments were analyzed in layers 2/3 and layers 5/6 of the ipsilateral and contralateral IL in CellSens (Olympus) using the polyline measure tool. […]

paclitaxel-treated mice = assay: mechanical paw withdrawal threshold (von Frey) in paclitaxel-induced CIPN; type: in vivo, mouse; settings: for mechanical allodynia / hypersensitivity, acute treatment: 10 mg/kg i.p. after full development of CIPN, 1st and 2nd injection, 1 and 3 hrs
DLBCL cell lines = settings: cited from earlier work
eIF4E phosphorylation = assay: Western blot of eIF4E phosphorylation in mPFC, DRG and sciatic nerve; type: in vivo, mouse
Description: Western blotting. […] The mPFC and DRGs were rapidly microdissected under a dissecting microscope and then flash frozen on dry ice. The mPFC was similarly collected from a separate group of WT male and female sham and SNI mice at 21 days post injury (the same time point as all rule-shifting experiments). Frozen tissues were homogenized with a pestle in lysis buffer (50 mM Tris, pH 7.4, 150 mM NaCl, 1 mM EDTA, pH 8.0, and 1% Triton X-100) containing protease and phosphatase inhibitors (Sigma-Aldrich), and then sonicated briefly. Samples were centrifuged at 14,000 rpm for 15 min at 4° C. 10 μg of protein was loaded into each well and separated by a 10%-12% SDS-PAGE gel. Proteins were transferred to a 0.45 μm PVDF membrane (Millipore) at 30 V overnight at 4° C. The next day, membranes were blocked with 5% non-fat dry milk (NFDM) in 1× Tris buffer solution containing Tween 20 (TTBS) for 1 h. Membranes were washed in 1×TTBS 3 times for 5 min each, then incubated with primary antibody overnight at 4° C. The primary antibodies used were: phospho-eIF4E (abcam ab76256; 1:1000), GAPDH (Cell Signaling Technology 2118S; 1:10000), total eIF4E (Cell Signaling Technology 9742S; 1:1000). […] Signals were detected using Immobilon Western Chemiluminescent HRP substrate (Millipore). […]

mice = assay: marble burying task; type: in vivo, mouse; settings: 10 mg/kg p.o. daily for 7 days, vs WT naïve
Description: Marble burying task. The marble burying task was used to assess obsessive compulsive disorder (OCD)-like behaviors as previously described^28. Nineteen marbles were placed on top of 5 cm of standard bedding in a clean cage. A mouse was placed into the cage for 30 minutes and then the number of buried marbles was counted.

## Cc1cc(Nc2cc(N)ncn2)c(=O)n2c1C(=O)NC21CCCCC1 [eFT508, Tomivosertib]
SNI mice
  mechanical withdrawal thresholds: had no effect
Infralimbic cortex
  SNI-induced changes in AIS length: reversed
paclitaxel-treated mice; 1 mg/kg, WT mice
  mechanical hypersensitivity (established CIPN), chronic treatment: robust relief of mechanical hypersensitivity; also recorded: reverses established CIPN
  tolerance to repeated dosing: No signs of tolerance; also recorded: without inducing tolerance
paclitaxel-treated mice; 1 mg/kg, eIF4E^S209A mice
  mechanical hypersensitivity, chronic treatment: completely absent; also recorded: completely without effect
paclitaxel-treated mice
  mechanical allodynia / hypersensitivity, acute treatment: reversal; also recorded: transiently relieves mechanical allodynia
paclitaxel-treated mice; listed as eFT08
  mechanical allodynia / hypersensitivity, acute treatment: relieves mechanical allodynia
DLBCL cell lines; TMD8, OCI-Ly3 and HBL1 DLBCL cell lines
  production of pro-inflammatory cytokines including TNFα, IL-6, IL-10 and CXCL10: dose-dependent decreases
DLBCL cell lines
  decrease in TNFα mRNA half-life: 2 fold
DLBCL cell lines; multiple DLBCL cell lines
  anti-proliferative activity: anti-proliferative activity
eIF4E phosphorylation; evidenced by western blot of eIF4E phosphorylation after drug-treatment
  crossing of the blood-brain-barrier: crosses the blood-brain-barrier
eIF4E phosphorylation; naïve mice, 1 hour after 10 mg/kg i.p. or p.o.
  eIF4E phosphorylation in mPFC, DRG and sciatic nerve: rapid and profound decrease; also recorded: significantly decreased
mice
  marble burying: no differences in marble burying; also recorded: performed similarly to naïve and vehicle-controls
